Experiment [1] deals with LX-2 cells (human hepatic stellate cell lines). Kind of experiment: Fibrosis markers by Western blotting after TGF-β induction, TGF-β receptor inhibitor. The format is cell-based. The following applies: 2 ng/ml TGF-β, 10 μM EW-7197, 24 hours, FIG. 3. On the procedure:
Cell experiments were performed by using AML12, […], and LX-2 cells, a human hepatic stellate cell.
LX-2 cells were cultured in a culture medium made by adding 1% penicillin streptomycin (anti-anti) and 10% fetal bovine serum (FBS) to a DMEM medium containing high glucose (4500 mg/L D-glucose, L-glutamine, 110 mg/L sodium pyruvate, sodium bicarbonate).
Fibrosis was induced in hepatocytes with TGF-β, a TGF-β receptor inhibitor was administered, and fibrosis was checked.
Specifically, 2 ng/ml of TGF-β was administered to the cells of Example 1-1, and administered or not administered with 10 μM EW-7197 (EW), and cultured for 24 hours. The control group (Con) was not treated with either TGF-β or the sample. […] A protein concentration was measured by BCA assay (Pierce Biotechnology Inc). […] Then, the membranes were washed, briefly incubated with Pico Enhanced Peroxidase Detection (EPD) Western reagent (ELPISBIOTECH. INC.) according to the manufacturer's procedure, and quantified by using an image analyzer (ImageQuant™ LAS 500, GE Healthcare Bio-Sciences AB, Uppsala, Sweden). β-actin was used as an internal control. Densitometry of protein intensity was quantified by using ImageJ (National Institutes of Health). […]
On the technique in general: Immunoblotting shows a protein as a band on a membrane.

Experiment [2] has as its system C57BL/6 mice in which steatohepatitis was induced with a methionine-choline deficient diet. Kind of experiment: Steatohepatitis animal model (MCD), curcumin 5-8 and low-concentration EW-7197 (5 mg/kg). Format: in vivo, mouse. The following applies: MCD-fed C57BL/6 mice, 6 weeks; EW-7197 5 mg/kg oral; curcumin 5-8 1 g per 1 kg diet. The method, then: 8-week-old male C57BL/6 mice weighing 20 to 25 g were purchased from Dae Han Bio Link Co., Ltd. (Chungbuk). […] Mice were fed with a normal diet (Research Diets, RD) and allowed to drink water freely. […] In order to confirm the physiological changes in case of co-administration of a curcumin derivative (Cur5-8) and a TGF-β receptor inhibitor (EW-7197), the liver weights and the concentrations of TG, TC, AST, ALT, and γ-GT in serum were measured. In addition, hydroxyprolin expression was checked as a fibrosis marker in the liver tissues. Specifically, the weights of the liver tissues harvested in Examples 2-1 and 2-2 were measured before storage. […] In order to measure blood glucose, triglyceride, cholesterol, and AST and ALT concentrations, ELISA kit of Asan Pharm. Co., Ltd. was purchased, and the measuring was performed. γ-GT in the liver was measured by using Mak089 of Sigma-Aldrich, and hydroxyproline was measured by using STA-675 ELISA kit of Cell Biolabs, Inc. In addition, the hydroxyprolin expression was checked in the liver tissues harvested in Examples 2-1 and 2-2. In order to check effects of inhibiting fat accumulation in liver tissues and fibrosis in liver tissues in case of co-administration of a curcumin derivative (Cur5-8) and a TGF-β receptor inhibitor (EW-7197), the liver tissues were stained. The liver tissues harvested in Examples 2-1 and 2-2 were fixed with 10% formaldehyde, the formaldehyde was washed out with running water for more than 12 hours, and then washing was performed with 60% ethanol at a one-hour interval, with 70% ethanol at a one-hour interval, and with 100% ethanol at a one-hour interval. Then, the transparency process in xylene was performed three times for one hour each, and the infiltration process in paraffin was performed twice for one hour each. Then, the paraffin block was cut to a thickness of about […] to obtain slices. […] In addition, H&E-stained liver slices were evaluated by using the NAFLD activity score (NAS) system. […]

Another experiment deals with liver fibrosis model. The following applies: carbon tetrachloride (CCL4) administration and bile duct ligation; previous studies; cited from earlier work.
The subject of another experiment is renal fibrosis model. The following applies: unilateral ureteral obstruction (UUO); previous studies; cited from earlier work.
In the next experiment the test system is lung fibrosis model. The note with it: bleomycin (BLM); previous studies; cited from earlier work.

As for `Cc1cccc(-c2[nH]c(CNc3ccccc3F)nc2-c2ccc3ncnn3c2)n1` [EW-7197, N-(2-fluorophenyl)-5-(6-methyl-2-pyridinyl)-4-[1,2,4]triazolo[1,5-a]pyridin-6-yl-1H-imidazole-2-methanamine], the “protein expressions of α-SMA, Coll, p-SMAD2, and p-SMAD3 increased by TGF-β” value in experiment [1] is “inhibited”. Also, in experiment [2], the ALT worked out at 96.1 ± 17.96 IU/L, the AST came to 159.6 ± 26.73 IU/L and the TG is 28.3 ± 4.84 mg/dL. In addition, the liver damage entry with liver fibrosis model is listed as “suppressing liver damage”. Further, the “tissue fibrosis (renal)” value in the experiment on renal fibrosis model is listed as “suppressing tissue fibrosis”. The “tissue fibrosis (lung)” value with lung fibrosis model is “suppressing tissue fibrosis”.

These data come from US20230364069A1, “METHOD FOR TREATING NON-ALCOHOLIC STEATOHEPATITIS THROUGH CO-ADMINISTRATION OF CURCUMIN DERIVATIVE AND TGF-B RECEPTOR INHIBITOR” (UNIVERSITY INDUSTRY FOUNDATION, YONSEI UNIVERSITY WONJU …, priority 2021, published 2023).
